Measurements as given in patent publication US20180021467A1, “METHOD OF BLOCKING PERCEPTION OF MALODOR” (Monell Chemical Senses Center, priority 2015, published 2018).

Legend:
TAAR5 [1] = biological target: T1, TAAR5 (Homo sapiens, UniProt O14804); conditions: cited from earlier work
T1 sequence (O14804 1-337): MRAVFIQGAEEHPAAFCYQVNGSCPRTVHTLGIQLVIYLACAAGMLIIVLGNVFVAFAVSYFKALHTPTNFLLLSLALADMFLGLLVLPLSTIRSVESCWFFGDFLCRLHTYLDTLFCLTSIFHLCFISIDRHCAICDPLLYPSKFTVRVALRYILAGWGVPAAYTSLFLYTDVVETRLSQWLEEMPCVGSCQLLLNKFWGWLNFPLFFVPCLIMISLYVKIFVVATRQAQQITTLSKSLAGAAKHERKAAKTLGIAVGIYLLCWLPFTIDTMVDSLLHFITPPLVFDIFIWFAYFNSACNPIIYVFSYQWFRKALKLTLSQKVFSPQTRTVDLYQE

TAAR5 [2] = biological target: T1, TAAR5; assay: Dose responses on TAAR5 in luciferase assay (antagonist dose-dependent inhibition with TMA at EC80; TMA dose response with antagonist at IC10, IC30, IC50); format: cell-based; set-up: TAAR open reading frames were amplified from pooled human genomic DNA using Phusion polymerase and subcloned into a pCI expression vector; Rho tag (first 20 residues of human rhodopsin); expressed in transfected cells; host or cells: Hana3A cells; conditions: TAAR5 luciferase
Text: (§1) We screened a TAAR of interest, TAAR5, with the agonist TMA added at the EC80 concentration, against a proprietary small-molecule library to identify antagonists. TAAR open reading frames were amplified from pooled human genomic DNA using Phusion polymerase and subcloned into a pCI expression vector (Promega) containing the first 20 residues of human rhodopsin (Rho tag). The sequences of the cloned receptors were verified by sequencing (3730xl Sequencer, ABI Biosystems). We used the Dual-Glo™ Luciferase Assay System (Promega) to measure receptor responses as previously described in Trimmer, C. et al 2014 High-throughput Analysis of Mammalian Olfactory Receptors: Measurement of Receptor Activation via Luciferase Activity. Journal of Visualized Experiments, (88). doi:10.3791/51640. Hana3A cells were transfected with 5 ng/well of RTP1S, 5 ng/well of pRL-SV40, 10 ng/well of CRE-luciferase, 2.5 ng/well of M3, and 5 ng/well of odorant receptor. 1M odorant stocks were diluted in DMSO. 24 hours following transfection, transfection media was removed and replaced with the appropriate concentration of odor diluted from the 1M stocks in CD293 (Gibco). Four hours following odor stimulation luminescence was measured using a Synergy 2 plate reader (Biotek). All luminescence values were divided by the Renilla Luciferase activity to control for transfection efficiency in a given well.
In a secondary experiment, we ran dose dependent inhibition responses for the top twelve antagonists, i.e., the top 12 compounds identified in FIG. 4. TMA was kept at the EC80 (500 μM) and the twelve antagonists were diluted in a dose response with the highest concentration at 1000 μM. The top five candidate compounds, i.e., phenethyl benzoate, trans-2-nonen-1-ol, isoeugenyl phenlacetate, tributyl-2-acetylcitrate, bis(2-methyl-3-furyl)disulfide, were rescreened using an antagonist dose response at 2500 μM. We determined the IC80 values for those five antagonists. Using those IC80 values, we completed a 3-fold dilution dose response of TMA, starting at 3000 μM, in the presence of our five candidate antagonists. […] It was difficult to determine if the five antagonists were competitive or non-competitive inhibitors using the very high IC80 concentrations of the antagonists.
In another experiment, we evaluated dose responses of TMA in the presence of the antagonist at their IC10, IC30 and IC50 concentrations.

TAAR5 [3] = biological target: T1, TAAR5; assay: Antagonist screen of odor library on TAAR5 with agonist TMA (Dual-Glo luciferase assay, Hana3A cells); format: cell-based; set-up: TAAR open reading frames were amplified from pooled human genomic DNA using Phusion polymerase and subcloned into a pCI expression vector; Rho tag (first 20 residues of human rhodopsin); expressed in transfected cells; host or cells: Hana3A cells; conditions: inhibition of TMA/TAAR5 response; test odor at 30 μM; TMA at EC80; read-out: Percent Inhibition
Experimental: as §1, with “The sequences of the cloned receptors were verified by sequencing (3730xl Sequencer, ABI Biosystems). We used the Dual-Glo™ Luciferase Assay System (Promega) to measure receptor responses as previously described in Trimmer, C. et al 2014 High-throughput Analysis of Mammalian Olfactory Receptors: Measurement of Receptor Activation via Luciferase Activity. Journal of Visualized Experiments, (88). doi:10.3791/51640.” left out
We completed an antagonist screen of a proprietary library of odors, including the 52 odorous compounds identified in FIG. 4 at a concentration of 30 μM.

[4] = test system: human perception of TMA odor ("fishy"); assay: Human perceptual ratings of fishiness of TMA with antagonist or control odor (air-dilution olfactometer); format: in vivo; conditions: human subjects, TMA 3 mM, 1 mM, 0.33 mM, odors intensity-balanced to 1 mM TMA
Experimental: We evaluated the efficacy of the in vitro antagonists on human perception. We asked 10 (FIG. 5A) or 29 (FIG. 5B) subjects to rate how “fishy” and how “pleasant” an odor was. The odors were delivered to the subject using an air-dilution olfactometer (Lundström, J. N., et al., 2010 International Journal of Psychophysiology, 78(2), 179-189; doi:10.1016/j.ijpsycho.2010.07.007) and each trial consisted of one concentration of trimethylamine (either 3 mM, 1 mM, 0.33 mM, or a water blank) combined with either an antagonist or a solvent blank. Subjects used a general labeled magnitude scale to rate how “fishy” the odor smelled and a scale from −10 to +10 to rate the pleasantness.
The antagonists and control odors were intensity-balanced to match the 1 mM concentration of TMA. Trans-2-nonen-1-ol was diluted in Diethyl phthalate (DEP); TMA was diluted in water with NaOH added; Linalool was diluted in DEP. In all trials subjects received air from jars containing water and DEP so that solvent presence could not be used as a cue to the presence of the test odor.

[5] = test system: human perception of TMA odor (mixture suppression); assay: Split-nostril experiment, physical vs dichorhinic mixtures with TMA; format: in vivo; conditions: human subjects, TMA with probe odorant
Text: Mixture suppression has both a central and peripheral component (Laing, D., & Willcox, M. (1987). An investigation of the mechanisms of odor suppression using physical and dichorhinic mixtures. Behavioural Brain Research, 26(2-3), 79-87. http://doi.org/10.1016/0166-4328(87)90157-4). […] To test this we carried out split-nostril experiments using stimuli in glass jars. We compared TMA-alone, TMA mixed with the probe odorant in the same nostril (physical mixture), and TMA mixed with the probe odorant in different nostrils (dichorhinic mixture) (FIG. 7). […] Subjects were instructed to make intensity judgements during inhalation to avoid retronasal contamination across nostrils. This allowed us to separate central and peripheral components of the mixture suppression.

Row | SMILES | activation of human TAAR5 (TAAR5 [1]) | EC80 of agonist on TAAR5 (TAAR5 [2]) | inhibition at 30 µM (TAAR5 [3]) | effect on perceived fishy rating of TMA ([4]; listed as Trans-2-nonen-1-ol) | effect on perceived fishy rating of TMA ([4]; listed as trans-2-nonen-1-ol) | peripheral component of mixture suppression [5] | IC50 (TAAR5 [2]; vs TMA, highest of the three concentrations in FIG. 2, read-out: IC50 concentration of antagonist) | IC10 concentration of antagonist (TAAR5 [2]; vs TMA, lowest of the three concentrations in FIG. 2) | IC30 concentration of antagonist (TAAR5 [2]; vs TMA, middle of the three concentrations in FIG. 2)
1 | CN(C)C [TMA, trimethylamine, reference compound] | activated in a concentration-dependent manner | 500 µM |  |  |  |  |  |  | 
2 | CCCCCC/C=C/CO [Trans-2-Nonen-1-ol] |  |  | 89.3% | significantly decreased the perceived fishy rating | decreases fishy intensity | larger peripheral component of mixture suppression than the control odorant linalool | 703 µM | 100 µM | 316.22 µM
